We go through 9 compounds from patent publication US12233161B1, “Lipids and lipid nanoparticle formulations” (LONGUIDE BIOPHARMA CORPORATION, priority 2024, dated 2025).

Data set [1] can be described thus: Potential characterization of nucleic acid lipid nanoparticle preparations. In kind it is physicochemical. The essentials: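 Zeta potential was read on a Malvern ZEN3700 after diluting 20 μL lipid nanoparticle solution (about 0.04 mg/mL mRNA) into 780 μL ultrapure water. Alternatively, a 27.5 μL sample in 200 μL water was first sized by dynamic light scattering, then diluted with 600 μL more water for potential measurement.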

Data set [2] is described as follows: Particle size and PDI of nucleic acid lipid nanoparticle preparations by dynamic light scattering. The format is physicochemical. The essentials: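 Nanoparticle suspension (about 0.04 mg/mL mRNA) diluted in ultrapure water, mixed by gentle pipetting; particle size measured by dynamic light scattering. Zeta potential measured on the recovered sample after further dilution in ultrapure water.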

The subject of the next data set is mice. Briefly: In vivo delivery of FLuc-mRNA lipid nanoparticles in mice, in vivo imaging (IVIS). The gist of the method:
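Mice (n=3) received about 75 μL FLuc-mRNA LNP per mouse intramuscularly (rectus femoris), intravenously (tail vein), intraperitoneally or subcutaneously (back). After injection, D-luciferin (200 μL, 15 mg/mL) was given i.p. 10-15 min before IVIS imaging.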

The mark [3] stands for this setting: DMG-PEG2000:DSPC:Chol:compound 1.40:11.15:38.95:48.50, N/P 30.
[4] abbreviates: IM, DMG-PEG2000:DSPC:Chol:compound 1.40:11.15:38.95:48.50, N/P 30, Fluc-mRNA.
Where [5] appears, read: IV, organ not given, DMG-PEG2000:DSPC:Chol:compound 1.40:11.15:38.95:48.50, N/P 30, Fluc-mRNA.
Where [6] appears, read: DMG-PEG2000:DPPC:Chol:compound 1.40:11.15:38.95:48.50, N/P 30.
The mark [7] stands for this setting: DMG-PEG2000:DSPC:Chol:compound 1.00:10.00:33.00:56.00, N/P 42.
[8] abbreviates: IV, body, DMG-PEG2000:DSPC:Chol:compound 1.00:10.00:33.00:56.00, N/P 42, Fluc-mRNA.
[9] abbreviates: IV, body, DMG-PEG2000:DSPC:Chol:compound 1.40:11.15:38.95:48.50, N/P 30, Fluc-mRNA.
The mark [10] stands for this setting: IV, liver, DMG-PEG2000:DSPC:Chol:compound 1.00:10.00:33.00:56.00, N/P 42.
Where [11] appears, read: IV, liver, DMG-PEG2000:DSPC:Chol:compound 1.00:10.00:33.00:56.00, N/P 42, Fluc-mRNA.
The mark [12] stands for this setting: IV, liver, DMG-PEG2000:DSPC:Chol:compound 1.40:11.15:38.95:48.50, N/P 30.
Setting [13] is: IV, liver, DMG-PEG2000:DSPC:Chol:compound 1.40:11.15:38.95:48.50, N/P 30, Fluc-mRNA.
[14] abbreviates: IV, lung, DMG-PEG2000:DSPC:Chol:compound 1.00:10.00:33.00:56.00, N/P 42.
[15] abbreviates: IV, lung, DMG-PEG2000:DSPC:Chol:compound 1.00:10.00:33.00:56.00, N/P 42, Fluc-mRNA.
The mark [16] stands for this setting: IV, lung, DMG-PEG2000:DSPC:Chol:compound 1.40:11.15:38.95:48.50, N/P 30.
Where [17] appears, read: IV, lung, DMG-PEG2000:DSPC:Chol:compound 1.40:11.15:38.95:48.50, N/P 30, Fluc-mRNA.
Where [18] appears, read: IV, spleen, DMG-PEG2000:DSPC:Chol:compound 1.00:10.00:33.00:56.00, N/P 42.
Where [19] appears, read: IV, spleen, DMG-PEG2000:DSPC:Chol:compound 1.00:10.00:33.00:56.00, N/P 42, Fluc-mRNA.
Setting [20] is: IV, spleen, DMG-PEG2000:DSPC:Chol:compound 1.40:11.15:38.95:48.50, N/P 30.
Setting [21] is: IV, spleen, DMG-PEG2000:DSPC:Chol:compound 1.40:11.15:38.95:48.50, N/P 30, Fluc-mRNA.
[22] abbreviates: DMG-PEG2000:DSPC:Chol:compound 1.40:11.15:38.95:48.50, N/P 20.
Where [23] appears, read: DSPE-PEG5000:DPPC:Chol:compound 1.00:11.15:39.35:48.50, N/P 15.

Consider `CCCCCCCCCCOC(=O)C(O)CN(C)CCCN(C)CCCN(C)CC(O)C(=O)OCCCCCCCCCC` (stereo not drawn) [Compound L0315], for which the “Zeta potential (mV)” value in data set [1] (setting [3]) amounted to 12.5 mV. Besides, in data set [2] (setting [3]), the PDI worked out at 0.13 and the “Particle size (nm)” value was 141.63 nm. Besides, in the data set with mice (setting [4]), the IVIS is on record as 8.43E+05. In addition, the IVIS in the data set with mice (setting [5]) stood at 5.00E+05.
`CCCCCCCCCCCCN(C)C(=O)C(O)CN(CCN(C)CCN(CC(O)C(=O)N(C)CCCCCCCCCCCC)CC(O)C(=O)N(C)CCCCCCCCCCCC)CC(O)C(=O)N(C)CCCCCCCCCCCC` (stereo not drawn) [Compound L0344]: the “Zeta potential (mV)” value in data set [1] (setting [6]) was found to be 16.13 mV. In data set [2] (setting [6]), this compound yielded a PDI of 0.26. Moreover, the “Particle size (nm)” value in data set [2] (setting [6]) is listed as 89.56 nm. Moreover, the IVIS worked out at 8.28E+04 with mice (IM, DMG-PEG2000:DPPC:Chol:compound 1.40:11.15:38.95:48.50, N/P 30, Fluc-mRNA); 1.91E+06 in the data set on mice (IV, body, DMG-PEG2000:DPPC:Chol:compound 1.40:11.15:38.95:48.50, N/P 30, Fluc-mRNA); 1.15E+05 in the data set on mice (IV, liver, DMG-PEG2000:DPPC:Chol:compound 1.40:11.15:38.95:48.50, N/P 30, Fluc-mRNA); 5.32E+06 in the data set on mice (IV, lung, DMG-PEG2000:DPPC:Chol:compound 1.40:11.15:38.95:48.50, N/P 30, Fluc-mRNA); 2.81E+05 in the data set on mice (IV, spleen, DMG-PEG2000:DPPC:Chol:compound 1.40:11.15:38.95:48.50, N/P 30, Fluc-mRNA). Also, the “% of organ targeting” value was 2.01% with mice (IV, liver, DMG-PEG2000:DPPC:Chol:compound 1.40:11.15:38.95:48.50, N/P 30); 93.07% in the data set with mice (IV, lung, DMG-PEG2000:DPPC:Chol:compound 1.40:11.15:38.95:48.50, N/P 30); 4.92% in the data set on mice (IV, spleen, DMG-PEG2000:DPPC:Chol:compound 1.40:11.15:38.95:48.50, N/P 30).
In the case of `CCCCCCC(CCCCCC)C(=O)OCCCCCCOC(=O)C(O)CN(C)CCN(C)CCN(C)CC(O)C(=O)OCCCCCCOC(=O)C(CCCCCC)CCCCCC` (stereo not drawn) [Compound L0291], the “Zeta potential (mV)” value in data set [1] (setting [3]) came to 15.07 mV. Further, the PDI turned out to be 0.13 in data set [2] (setting [7]) and 0.17 in data set [2] (setting [3]). Also, the “Particle size (nm)” value in data set [2] (setting [7]) came to 221.70 nm; in data set [2] (setting [3]), 259.67 nm. Moreover, the IVIS in the data set with mice (setting [4]) is listed as 1.87E+07; in the data set on mice (setting [8]) it was 2.60E+07; in the data set on mice (setting [9]) it was 1.83E+07; in the data set with mice (setting [11]), 1.32E+06; in the data set on mice (setting [13]) it was 3.30E+06; in the data set with mice (setting [15]), 1.50E+06. Besides, the IVIS in the data set with mice (setting [17]) stood at 2.14E+05; in the data set with mice (setting [19]), 2.32E+07; in the data set on mice (setting [21]) it was 1.89E+06. The “% of organ targeting” value was found to be 5.08% in the data set with mice (setting [10]); 61.07% in the data set on mice (setting [12]); 5.76% in the data set on mice (setting [14]); 3.97% with mice (setting [16]); 89.17% with mice (setting [18]); 34.97% with mice (setting [20]).
`CCCCCCCCCCNC(=O)C(O)CN(CCCCCN(CC(O)C(=O)NCCCCCCCCCC)CC(O)C(=O)NCCCCCCCCCC)CC(O)C(=O)NCCCCCCCCCC` (stereo not drawn) [Compound L0320]: the “Zeta potential (mV)” value in data set [1] (setting [22]) was determined as 10.39 mV. This compound also showed a PDI in data set [2] (setting [22]) of 0.10. In addition, in data set [2] (setting [22]), the “Particle size (nm)” value is given as 120.33 nm. For the same compound, the IVIS in the data set with mice (IM, DMG-PEG2000:DSPC:Chol:compound 1.40:11.15:38.95:48.50, N/P 20, Fluc-mRNA) is 1.45E+05; in the data set on mice (IV, organ not given, DMG-PEG2000:DSPC:Chol:compound 1.40:11.15:38.95:48.50, N/P 20, Fluc-mRNA), 6.60E+05.
Consider `CCCCCCOC(C)OCCCCCCOC(=O)C(O)CN(CCCN(C)CCCN(CC(O)C(=O)OCCCCCCOC(C)OCCCCCC)CC(O)C(=O)OCCCCCCOC(C)OCCCCCC)CC(O)C(=O)OCCCCCCOC(C)OCCCCCC` (stereo not drawn) [Compound L0316], for which the “Zeta potential (mV)” value in data set [1] (setting [3]) is reported as 18.97 mV. In data set [2] (setting [3]), the PDI came to 0.12 and the “Particle size (nm)” value was determined as 125.9 nm. In the data set on mice (setting [4]), the IVIS amounted to 4.46E+06. In the data set on mice (setting [5]), this compound returned an IVIS of 3.53E+08.
As to `CCCC/C=C\CCOCOCCCCOC(=O)C(O)CN(CCN(C)CCN(CC(O)C(=O)OCCCCOCOCC/C=C\CCCC)CC(O)C(=O)OCCCCOCOCC/C=C\CCCC)CC(O)C(=O)OCCCCOCOCC/C=C\CCCC` (stereo not drawn) [Compound L0335], the “Zeta potential (mV)” value in data set [1] (setting [3]) worked out at 14.07 mV. Also, the PDI in data set [2] (setting [3]) came out at 0.19. In addition, in data set [2] (setting [3]), the “Particle size (nm)” value is on record as 110.13 nm. The IVIS with mice (setting [4]) is given as 1.99E+06; in the data set with mice (setting [9]) it was 9.08E+07; with mice (setting [13]), 1.92E+07; with mice (setting [17]) it was 1.39E+06; in the data set on mice (setting [21]), 3.05E+07. Moreover, the “% of organ targeting” value stood at 37.57% in the data set on mice (setting [12]), 2.72% in the data set with mice (setting [16]) and 59.71% in the data set on mice (setting [20]).
As to `CCCCCCCCCCCCNCC(O)CN(CCCCCN(C)CCCCCN(CC(O)CNCCCCCCCCCCCC)CC(O)C(=O)NCCCCCCCCCCCC)CC(O)C(=O)NCCCCCCCCCCCC` (stereo not drawn) [Compound L0303], the “Zeta potential (mV)” value in data set [1] (setting [3]) was found to be 12.97 mV. The PDI in data set [2] (setting [7]) is given as 0.09; in data set [2] (setting [3]), 0.10. Moreover, the “Particle size (nm)” value in data set [2] (setting [7]) amounted to 132.10 nm; in data set [2] (setting [3]) it was 122.57 nm. Further, the IVIS turned out to be 9.76E+05 in the data set on mice (setting [4]); 2.40E+08 with mice (setting [8]); 1.33E+08 with mice (setting [9]); 2.70E+06 in the data set with mice (setting [11]); 7.60E+06 with mice (setting [13]); 4.17E+08 in the data set with mice (setting [15]). Also, the IVIS turned out to be 3.25E+08 in the data set on mice (setting [17]), 2.70E+06 with mice (setting [19]) and 5.38E+06 with mice (setting [21]). The “% of organ targeting” value in the data set with mice (setting [10]) is listed as 0.64%; with mice (setting [12]), 2.25%; in the data set on mice (setting [14]), 98.72%; in the data set with mice (setting [16]), 96.16%; with mice (setting [18]), 0.64%; in the data set on mice (setting [20]), 1.59%.
On to `CCCCCCCCC(CCCCCC)C(=O)OCCCCCCOC(=O)C(O)CN(CCCN(C)CCCN(CC(O)C(=O)OCCCCCCOC(=O)C(CCCCCC)CCCCCCCC)CC(O)C(=O)OCCCCCCOC(=O)C(CCCCCC)CCCCCCCC)CC(O)C(=O)OCCCCCCOC(=O)C(CCCCCC)CCCCCCCC` (stereo not drawn) [Compound L0295], for which, in data set [1] (setting [3]), the “Zeta potential (mV)” value came to 10.63 mV. Moreover, the PDI in data set [2] (setting [3]) is 0.10. Also, in data set [2] (setting [3]), the “Particle size (nm)” value was determined as 135.33 nm. Moreover, the IVIS in the data set with mice (setting [4]) was 5.87E+07; in the data set with mice (setting [9]), 9.48E+07; in the data set on mice (setting [13]), 2.38E+07; in the data set with mice (setting [17]), 4.20E+06; in the data set on mice (setting [21]), 4.37E+07. In addition, the “% of organ targeting” value in the data set on mice (setting [12]) turned out to be 33.17%; in the data set on mice (setting [16]), 5.87%; with mice (setting [20]) it was 60.96%.
On to `CCCCCCCCCCN(C)C(=O)C(O)CN(C)CCN(C)CCN(C)CC(O)C(=O)N(C)CCCCCCCCCC` (stereo not drawn) [Compound L0348], for which, in data set [1] (setting [23]), the “Zeta potential (mV)” value was found to be 5.54 mV. For the same compound, in data set [2] (setting [23]), the PDI is 0.14 and the “Particle size (nm)” value came to 118.20 nm. Also, the IVIS in the data set with mice (Fluc-mRNA LNP, route IM, organ not given, formulation, molar ratio and N/P as in the table) is listed as 3.49E+05. For the same compound, the IVIS in the data set with mice (IV, organ not given, DSPE-PEG5000:DPPC:Chol:compound 1.00:11.15:39.35:48.50, N/P 15, Fluc-mRNA) is recorded as 4.84E+05.
